Legend:
HT-29 xenograft = assay: HT-29 colon cancer xenograft; format: in vivo, mouse; details: monotherapy, FIG. 26A
Procedure: Female athymic nu/nu mice, 6-8 weeks of age, were injected subcutaneously on the lateral dorsal surface with 0.4 mL volume of a suspension containing a human tumor cell line in media, diluted 1:1 with MATRIGEL™ (BD Biosciences). The cell lines used in xenograft models, with the cell doses indicated in parenthesis (10^6 cells/mouse), were: human colon carcinoma cell lines DLD-I (5), GEO (5) and HT-29 (5); human breast carcinoma cell lines DU4475 (2), MDA-MB-231 (5), MDA-MB-435 (5), and BT474 (5). When tumors reached approximately 200-300 mm^3, mice were randomized by tumor size and divided into treatment groups. Tumor growth was evaluated approximately twice weekly, with tumor volume calculated as π/6* (Length*Width^2), where Length=longest diameter and Width=diameter perpendicular to Length. Tumor dimensions were measured with calipers. T/C % was calculated as 100*(Final Treatment Tumor Volume/Initial Treatment Tumor Volume)/(Final Control Tumor Volume/Initial Control Tumor Volume).
18F1 was diluted in 0.9% USP saline (Braun) or phosphate buffered saline (PBS) and administered intraperitoneally in a volume of 0.5 mL per mouse. The effect of treatment on tumor growth was analyzed using repeated measures analysis of variance (RM ANOVA), p<0.05 was considered significant.

MDA-MB-435 xenograft = assay: MDA-MB-435 breast tumor xenograft; format: in vivo, mouse
Procedure: Athymic nude mice (Charles River Laboratories, Wilmington, Mass.) were injected subcutaneously in the left flank area with 2×10^6 of DU4475 cells or 5×10^6 of MDA-MB-231 and MDA-MB-435 cells mixed in Matrigel (Collaborative Research Biochemicals. Bedford, Mass.). In the DU4475 and MDA-MB-231 models, tumors were allowed to reach approximately 200 mm^3 in size and then mice were randomized into groups of 12-16 animals per group. Animals received i.p. administration of the anti-VEGFR-I antibody clones 6F9, 15F11, or 18F1 at a dose of 0.5 mg (MDA-MB-231) or 1 mg (DU4475) three times each week. In the MDA-MB-435 model, the tumor cells were implanted subcutaneously into mammary fat pad area in the mouse. After tumors grew to reach approximately 200 mm^3 in size, mice were randomized into groups of 15 animals per group and intraperitoneally administered with 0.5 mg per dose of 18F1 antibody three times each week. Mice in control groups received an equal volume of saline solution. Treatment of animals was continued for the duration of the experiment. Tumors were measured twice each week with calipers. Tumor volumes were calculated using the formula [π/6 (w1×w2×w2)], where “w1” represents the largest tumor diameter and “w2” represents the smallest tumor diameter. […] Tumor growth was evaluated approximately twice weekly, with tumor volume calculated as π/6* (Length*Width^2), where Length=longest diameter and Width=diameter perpendicular to Length. Tumor dimensions were measured with calipers. T/C % was calculated as 100*(Final Treatment Tumor Volume/Initial Treatment Tumor Volume)/(Final Control Tumor Volume/Initial Control Tumor Volume). […] The effect of treatment on tumor growth was analyzed using repeated measures analysis of variance (RM ANOVA), p<0.05 was considered significant. […] AU treatments were administered i.p. The effect of treatments on tumor growth were analyzed using repeated measures analysis of variance (RM ANOVA), p<0.05 was considered significant.

[1] = target: T1, native VEGFR-I on PAE-VEGFR-I cells (Homo sapiens, UniProt P17948); assay: Flow cytometry analysis, PAE-VEGFR-I cells; format: binding; details: FIG. 7
T1 construct: host or cells: porcine aorta endothelial (PAE) cells
Procedure: Aliquots of 10^6PAE-VEGFR-I cells were harvested from subconfluent cultures and incubated with anti-VEGFR-I antibody clones 6F9, 13G12, F11, and 18F1 in PBS with 1% bovine serum albumin (BSA) and 0.02% sodium azide (staining buffer) for one hour on ice. Aliquots of 10^6DU4475 human breast carcinoma cells were harvested from subconfluent cultures and incubated with anti-VEGFR-1 antibody clone 18F1 in PBS with 1% bovine serum albumin (BSA) and 0.02% sodium azide (staining buffer) for one hour on ice. A matched IgG isotype (Jackson ImmunoResearch, West Grove, Pa.) was used as a negative control. Cells were washed twice with flow buffer and then incubated with a fluorescein isothiocyanate (FITC)-labeled goat anti-human IgG antibody (BioSource International, Camarillo, Calif.) in staining buffer for 30 minutes on ice. Cells were washed as above and analyzed on an Epics XL flow cytometer (Beckman-Coulter, Hialeah, Fla.). Dead cells and debris were eliminated from the analysis on the basis of forward and sideways light scatter. The mean fluorescent intensity units (MFRJ) were calculated as the mean log fluorescence multiplied by the percentage of positive population.

T1 sequence (P17948 27-1338): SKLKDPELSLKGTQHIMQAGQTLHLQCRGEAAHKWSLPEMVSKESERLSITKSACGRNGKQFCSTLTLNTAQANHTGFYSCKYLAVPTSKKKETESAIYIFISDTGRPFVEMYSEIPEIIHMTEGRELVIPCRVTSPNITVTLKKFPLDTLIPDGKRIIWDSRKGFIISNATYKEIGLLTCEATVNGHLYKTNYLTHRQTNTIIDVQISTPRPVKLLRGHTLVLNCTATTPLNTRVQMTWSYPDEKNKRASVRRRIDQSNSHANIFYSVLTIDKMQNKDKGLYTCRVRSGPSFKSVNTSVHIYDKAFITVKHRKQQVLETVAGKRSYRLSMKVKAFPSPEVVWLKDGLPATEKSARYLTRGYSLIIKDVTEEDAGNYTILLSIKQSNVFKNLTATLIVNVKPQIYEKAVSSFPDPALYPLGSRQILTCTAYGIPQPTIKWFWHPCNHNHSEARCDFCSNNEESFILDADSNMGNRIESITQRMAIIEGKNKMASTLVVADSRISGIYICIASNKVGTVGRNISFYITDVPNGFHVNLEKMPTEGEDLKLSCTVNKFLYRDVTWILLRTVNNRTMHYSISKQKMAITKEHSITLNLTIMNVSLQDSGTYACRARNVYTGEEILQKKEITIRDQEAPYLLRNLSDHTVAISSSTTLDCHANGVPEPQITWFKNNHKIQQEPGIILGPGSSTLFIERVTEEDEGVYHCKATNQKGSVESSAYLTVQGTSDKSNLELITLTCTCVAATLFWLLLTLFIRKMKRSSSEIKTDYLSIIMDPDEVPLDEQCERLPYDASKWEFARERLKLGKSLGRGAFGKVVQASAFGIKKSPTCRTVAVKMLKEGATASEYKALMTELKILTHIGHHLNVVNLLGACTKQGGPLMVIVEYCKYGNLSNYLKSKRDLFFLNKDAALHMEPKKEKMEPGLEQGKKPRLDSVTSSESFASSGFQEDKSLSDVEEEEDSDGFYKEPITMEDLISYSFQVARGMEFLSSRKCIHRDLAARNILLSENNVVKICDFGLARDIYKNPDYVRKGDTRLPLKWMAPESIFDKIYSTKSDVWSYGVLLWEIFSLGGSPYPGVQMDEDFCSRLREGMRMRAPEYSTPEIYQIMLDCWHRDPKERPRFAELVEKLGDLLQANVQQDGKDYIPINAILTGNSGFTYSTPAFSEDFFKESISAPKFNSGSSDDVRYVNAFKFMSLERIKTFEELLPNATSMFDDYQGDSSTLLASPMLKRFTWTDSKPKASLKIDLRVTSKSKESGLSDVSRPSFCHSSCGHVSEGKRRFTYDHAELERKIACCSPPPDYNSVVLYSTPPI

binding reactivity with PAE-VEGFR-I expressing cells [1]: binding reactivity
Substance: 18F1: human anti-VEGFR-1 monoclonal antibody clone; VL SEQ ID NO: 16, VH SEQ ID NO: 20 [Clone 18F1]
antitumor effect against HT-29 colon cancer xenografts (HT-29 xenograft): significant antitumor effect
tumor growth of the MDA-MB-435 xenograft (MDA-MB-435 xenograft; 0.5 or 1 mg per dose three times each week, ANOVA p<0.05, FIG. 20C): statistically significant suppression
growth of MDA-MB-435 xenograft tumors (MDA-MB-435 xenograft; Example 9, intraperitoneal, p<0.05, FIG. 25B): significantly (p<0.05) suppressed
